Like-named read-outs stand apart in the source and are kept apart here.
Assays:
[1] = Microcentrifuge dissolution test in model fasted duodenal solution (MFDS); assay type: physicochemical; details: dosed at 200 μgA/mL
Experimental: The microcentrifuge dissolution test was performed to assess the ability of the indibulin SDD to sustain solubilized drug levels and to determine suspension stability. Using this method, 10% A HPMCAS-H(HPMCAS high grade), 15% A HPMCAS-H, 20% A HPMCAS-H, 25% A HPMCAS-H, 25% A HPMCAS-M (HPMCAS medium grade) and 50% A HPMCAS-M SDD formulations were tested. Specifically, the microcentrifuge dissolution test measures the supersaturation of drug above the crystalline solubility when dosed into the model fasted duodenal solution (MFDS).
In the microcentrifuge dissolution test, indibulin HPMCAS SDDs were each dosed into MFDS, which is 0.5% taurocholic acid, sodium salt hydrate (NaTC)/1-palmitoyl-2-oleoyl-sn-glycero-3-phosphocholine (POPC) in phosphate buffer solution (PBS, pH 6.5). In each resulted sample, the concentration of dissolved indibulin would have been 200 μg active drug per mL (200 μgA/mL), if all of the indibulin had dissolved. The samples were centrifuged at 13,000 rpm at 37° C. for 1 minute. The supernatant solution of each sample was then analyzed by HPLC. The remaining sample was mixed and allowed to stand undisturbed until next measurement was taken. […]

[2] = Rat pharmacokinetic study, second study (dose response); assay type: in vivo, rats; details: plasma, po; for AUC(0-t) / Cmax / Tmax: Second Study; for concentration at 0 h / concentration at 0.5 h / concentration at 1 h / concentration at 2 h / concentration at 4 h / concentration at 6 h / concentration at 10 h: second study, read-out: plasma indibulin
Experimental: The second study was designed to determine the dose response of indibulin plasma concentration with the 10% A SDD formulation. In general, 10% A SDD was administered p.o. at 10, 15 and 20 mg/kg and plasma indibulin concentrations were determined at several time points.
All rats used in the second study were fasted 12 hours prior to dose, and food was returned 4 hours post dose. Indibulin in crystalline form was suspended in 0.5% Methocel A at 10 mg/kg, 15 mg/kg and 20 mg/kg by vortexing and sonicating. The indibulin SDD formulations were made by combining 10% active indibulin SDD at 10 mg/kg, 15 mg/kg and 20 mg/kg in a mortar with 0.5% Methocel A and using a pestle to gradually mix in to solution. There were six rats per group, all animals were weighed and the dose volume calculated so that each rat received the test article orally at a volume of 10 mL/kg. The first three rats in each group were bled at […], 2, and 6 hours post dose; the remaining three rats in each group were bled at 1, 4, and 10 hours post dose. For blood collection at all time points, all animals were anesthetized with an inhalation of 4% isoflurane and 1.5% oxygen; once it was determined that the animal was adequately anesthetized (no reaction to physical stimulation) using a capillary tube the orbital venous plexus was punctured and a volume of 1 mL of blood was collected in to a sodium heparin tube. Once the blood was collected the sodium heparin tube was inverted ten times, and placed on ice until centrifuged for 10 minutes at 2510 rpm. The plasma was decanted into labeled Eppendorfs and stored at −80° C. until analyzed by HPLC with MS/MS Detection. All data were acquired using Applied Biosystems/MDS-Sciex Analyst Version 1.5; processed, and reported using Watson Version 7.3.0.01TM, Thermo Fisher Scientific, Inc.; and are summarized in FIG. 13 and FIG. 14.

[3] = cited from earlier work

Work on `O=C(Nc1ccncc1)C(=O)c1cn(Cc2ccc(Cl)cc2)c2ccccc12` [Bulk Crystalline Drug, indibulin] yielded an AUC90 ([1]; MFDS pH 6.5, first 90 min) of 160 µg·min/mL, a C90 ([1]; concentration in MFDS at 90 min) of 1 µg/mL and a C1200 ([1]; concentration in MFDS at 1200 min) of 3 µg/mL. It also gave a Cmax90 ([1]; maximum concentration of indibulin in MFDS pH 6.5, first 90 min) of 2000 ng/mL, an AUC(0-t) ([2]; rat p.o. 10 mg/kg (60 mg/m^2)) of 48 ng·h/mL and a Cmax ([2]; rat p.o. 10 mg/kg (60 mg/m^2)) of 8.6 ng/mL. For the same compound, the Tmax ([2]; rat p.o. 10 mg/kg (60 mg/m^2)) was 2 h, the AUC(0-t) ([2]; rat p.o. 15 mg/kg (90 mg/m^2)) was 146 ng·h/mL and the Cmax ([2]; rat p.o. 15 mg/kg (90 mg/m^2)) was 24 ng/mL. The Tmax ([2]; rat p.o. 15 mg/kg (90 mg/m^2)) was 4 h, the AUC(0-t) ([2]; rat p.o. 20 mg/kg (120 mg/m^2)) was 110 ng·h/mL and the Cmax ([2]; rat p.o. 20 mg/kg (120 mg/m^2)) was 21 ng/mL. The Tmax ([2]; rat p.o. 20 mg/kg (120 mg/m^2)) was 4 h, the concentration at 0 h ([2]; rat p.o. 10 mg/kg) was 0 ng/mL and the concentration at 0.5 h ([2]; rat p.o. 10 mg/kg) was 2 ng/mL. It also gave a concentration at 1 h ([2]; rat p.o. 10 mg/kg) of 4 ng/mL, a concentration at 2 h ([2]; rat p.o. 10 mg/kg) of 9 ng/mL and a concentration at 4 h ([2]; rat p.o. 10 mg/kg) of 4 ng/mL. The concentration at 6 h ([2]; rat p.o. 10 mg/kg) was 7 ng/mL, the concentration at 10 h ([2]; rat p.o. 10 mg/kg) was 2 ng/mL and the concentration at 0 h ([2]; rat p.o. 15 mg/kg) was 0 ng/mL. For the same compound, the concentration at 0.5 h ([2]; rat p.o. 15 mg/kg) was 10 ng/mL, the concentration at 1 h ([2]; rat p.o. 15 mg/kg) was 17 ng/mL and the concentration at 2 h ([2]; rat p.o. 15 mg/kg) was 17 ng/mL. For the same compound, the concentration at 4 h ([2]; rat p.o. 15 mg/kg) was 24 ng/mL, the concentration at 6 h ([2]; rat p.o. 15 mg/kg) was 7 ng/mL and the concentration at 10 h ([2]; rat p.o. 15 mg/kg) was 19 ng/mL. For the same compound, the concentration at 0 h ([2]; rat p.o. 20 mg/kg) was 0 ng/mL, the concentration at 0.5 h ([2]; rat p.o. 20 mg/kg) was 9 ng/mL and the concentration at 1 h ([2]; rat p.o. 20 mg/kg) was 12 ng/mL. The concentration at 2 h ([2]; rat p.o. 20 mg/kg) was 14 ng/mL, the concentration at 4 h ([2]; rat p.o. 20 mg/kg) was 21 ng/mL and the concentration at 6 h ([2]; rat p.o. 20 mg/kg) was 7 ng/mL. For the same compound, the concentration at 10 h ([2]; rat p.o. 20 mg/kg) was 6 ng/mL and the “solubility in water, methanol, ethanol or 2-propanol” value [3] was “practically insoluble”.

— patent US20140004192A1, “PHARMACEUTICAL FORMULATIONS OF INDIBULIN AND USES THEREOF” (Ziopharm Oncology, Inc., priority 2012, published 2014)
